This note sets out measurements from patent US20060040957A1, “BICYCLIC PYRIMIDINE MATRIX METALLOPROTEINASE INHIBITORS” (priority 2001, published 2006).

Structures can show the parent of a compound that is named as a salt. Where two headings read alike, the source gives them in different places.

The target in data set [1] is T1, MMP-1FL (full length interstitial collagenase) (Homo sapiens, UniProt P03956).
T1 sequence (P03956 100-469): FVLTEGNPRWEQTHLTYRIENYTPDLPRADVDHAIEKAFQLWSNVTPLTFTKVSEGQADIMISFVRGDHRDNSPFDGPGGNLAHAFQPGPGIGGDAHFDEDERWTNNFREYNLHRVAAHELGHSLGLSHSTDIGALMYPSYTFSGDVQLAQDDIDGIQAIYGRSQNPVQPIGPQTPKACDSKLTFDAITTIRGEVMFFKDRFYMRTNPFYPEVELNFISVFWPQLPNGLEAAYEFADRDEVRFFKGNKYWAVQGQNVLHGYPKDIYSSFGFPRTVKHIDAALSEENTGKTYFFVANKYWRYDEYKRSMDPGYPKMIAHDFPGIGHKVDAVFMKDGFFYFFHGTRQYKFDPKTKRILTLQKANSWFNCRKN
Kind of data set: Thiopeptolide substrate hydrolysis assay, MMP-1FL. Conditions: HEPES pH 7.0, 22° C., read-out: IC50 (μM) Versus Certain MMPs: MMP-01 FL. In kind it is biochemical. From the text: (§1) The invention compounds of Formula I have been evaluated in standard assays for their ability to inhibit the catalytic activity of various MMP enzymes.
(§2) Thiopeptolide substrates show virtually no decomposition or hydrolysis at or below neutral pH in the absence of a matrix metalloproteinase enzyme.
(§3) Several representative compounds have been evaluated for their ability to inhibit various matrix metalloproteinase enzymes.

For data set [2], the target named is MMP-13CD (catalytic domain of collagenase 3) (Homo sapiens, UniProt P45452). The data set can be described thus: Thiopeptolide substrate hydrolysis assay, MMP-13CD. The format is biochemical. To be noted: thiopeptolide substrate, HEPES pH 7.0, 22° C.
Text: as §2

Data set [3] has as its target T2, MMP-2FL (full length Gelatinase A) (Homo sapiens, UniProt P08253).
T2 sequence (P08253 110-660): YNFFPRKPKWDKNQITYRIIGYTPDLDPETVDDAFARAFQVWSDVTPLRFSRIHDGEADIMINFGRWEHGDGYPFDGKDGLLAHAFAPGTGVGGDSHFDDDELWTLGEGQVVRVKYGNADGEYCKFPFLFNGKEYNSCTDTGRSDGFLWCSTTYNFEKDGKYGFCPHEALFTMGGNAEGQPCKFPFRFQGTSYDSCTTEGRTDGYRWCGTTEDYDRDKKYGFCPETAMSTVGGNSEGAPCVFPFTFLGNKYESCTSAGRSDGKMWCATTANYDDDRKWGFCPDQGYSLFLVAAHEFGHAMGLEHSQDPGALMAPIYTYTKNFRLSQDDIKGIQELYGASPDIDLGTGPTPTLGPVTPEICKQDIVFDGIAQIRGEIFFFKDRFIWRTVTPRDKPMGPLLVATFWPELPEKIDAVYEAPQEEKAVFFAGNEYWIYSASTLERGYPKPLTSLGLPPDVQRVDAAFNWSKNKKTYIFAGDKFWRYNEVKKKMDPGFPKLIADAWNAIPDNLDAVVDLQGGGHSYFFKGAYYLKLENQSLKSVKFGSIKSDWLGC
The data set can be described thus: Thiopeptolide substrate hydrolysis assay, MMP-2FL. The format is biochemical. To be noted: HEPES pH 7.0, 22° C., read-out: IC50 (μM) Versus Certain MMPs: MMP-02 FL.
Text: as §1, §2, §3

Data set [4] deals with T3, MMP-7FL (full length matrilysin) (Homo sapiens, UniProt P09237).
T3 sequence (P09237 95-267): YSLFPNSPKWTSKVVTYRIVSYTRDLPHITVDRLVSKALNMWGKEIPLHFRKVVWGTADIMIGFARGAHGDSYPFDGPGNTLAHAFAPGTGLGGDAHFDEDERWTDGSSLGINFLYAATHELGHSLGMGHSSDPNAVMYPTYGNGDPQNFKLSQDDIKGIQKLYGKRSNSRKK
Kind of data set: Thiopeptolide substrate hydrolysis assay, MMP-7FL. In kind it is biochemical. To be noted: HEPES pH 7.0, 22° C., read-out: IC50 (μM) Versus Certain MMPs: MMP-07 FL.
Text: as §1, §2, §3

For data set [5], the target named is MMP-9FL (full length Gelatinase B) (Homo sapiens, UniProt P14780). The data set can be described thus: Thiopeptolide substrate hydrolysis assay, MMP-9FL. In kind it is biochemical. To be noted: HEPES pH 7.0, 22° C., read-out: IC50 (μM) Versus Certain MMPs: MMP-09 FL.
Text: as §1, §2, §3

The target in data set [6] is MMP-14CD (catalytic domain of MMP-14) (Homo sapiens, UniProt P50281). The data set can be described thus: Thiopeptolide substrate hydrolysis assay, MMP-14CD. In kind it is biochemical. To be noted: HEPES pH 7.0, 22° C., read-out: IC50 (μM) Versus Certain MMPs: MMP-14 CD.
Text: as §1, §2, §3

Data set [7] deals with MMP-3CD (catalytic domain of stromelysin-1) (Homo sapiens, UniProt P08254). Kind of data set: Thiopeptolide substrate hydrolysis assay, MMP-3CD. The format is biochemical. Conditions: MES buffer pH 6.0, read-out: IC50 (μM) Versus Certain MMPs: MMP-03 CD. On the procedure: as §1, §2, §3
It should be appreciated that the assay buffer used with MMP-3CD was 50 mM N-morpholinoethane sulfonate (−MES=) at pH 6.0 rather than the HEPES buffer at pH 7.0 described above.

Where [8] appears, read: read-out: IC50 (μM) Versus Certain MMPs: MMP-13 CD.
[9] abbreviates: IC50 (μM) Versus Certain MMPs: MMP-13 CD.

Chain of MMP-9FL (full length Gelatinase B) (P14780 94-707, species assumed): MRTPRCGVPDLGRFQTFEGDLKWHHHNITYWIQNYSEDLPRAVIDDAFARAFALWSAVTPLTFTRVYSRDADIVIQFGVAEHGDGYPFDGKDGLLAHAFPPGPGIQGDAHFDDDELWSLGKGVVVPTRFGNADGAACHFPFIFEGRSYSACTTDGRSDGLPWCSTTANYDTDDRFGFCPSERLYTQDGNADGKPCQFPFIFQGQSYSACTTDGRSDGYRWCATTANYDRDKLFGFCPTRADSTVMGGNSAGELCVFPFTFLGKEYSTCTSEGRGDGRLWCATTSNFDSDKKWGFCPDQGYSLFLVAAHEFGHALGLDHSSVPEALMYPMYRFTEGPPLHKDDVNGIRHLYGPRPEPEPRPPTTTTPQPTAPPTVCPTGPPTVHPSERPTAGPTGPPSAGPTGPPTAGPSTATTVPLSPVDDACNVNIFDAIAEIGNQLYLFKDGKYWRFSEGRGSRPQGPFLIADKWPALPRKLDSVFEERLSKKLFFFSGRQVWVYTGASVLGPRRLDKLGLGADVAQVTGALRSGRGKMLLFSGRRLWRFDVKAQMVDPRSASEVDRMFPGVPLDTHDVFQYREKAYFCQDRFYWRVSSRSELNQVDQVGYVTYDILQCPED
Chain of MMP-3CD (catalytic domain of stromelysin-1) (P08254 100-272 limits assumed): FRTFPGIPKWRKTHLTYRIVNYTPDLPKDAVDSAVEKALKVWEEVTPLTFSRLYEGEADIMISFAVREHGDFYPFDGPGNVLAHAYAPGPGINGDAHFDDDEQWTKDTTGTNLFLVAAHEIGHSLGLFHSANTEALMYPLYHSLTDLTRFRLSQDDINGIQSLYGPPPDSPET

Take `Cc1c(=O)n(Cc2ccc(C(=O)O)cc2)c(=O)n2cc(C(=O)NCc3ccncc3)sc12` [Example 62, 4-{8-Methyl-5,7-dioxo-2-[(pyridin-4-ylmethyl)-carbamoyl]-7H-thiazolo[3,2-c]pyrimidin-6-ylmethyl}-benzoic acid trifluoro-acetate]: in data set [1], the IC50 (in general, the concentration at which inhibition is half-maximal) is greater than 100 µM.

Regarding `O=c1cc2sccn2c(=O)n1Cc1ccc(Cl)cc1` [6-(4-Chlorobenzyl)-thiazolo[3,2-c]pyrimidine-5,7-dione], the melting point (as a rule, the temperature of the solid-liquid transition) was 152 to 153.5 °C. The 50% inhibitory concentration (IC50) in data set [2] (setting [8]) is greater than 100 µM.

As to `Cc1c(=O)n(Cc2ccccc2)c(=O)n2cc(C(=O)NCc3ccc4[nH]ccc4c3)sc12` [Example 34, 6-Benzyl-8-methyl-5,7-dioxo-6,7-dihydro-5H-thiazolo[3,2-c]pyrimidine-2-carboxylic acid(1H-indol-5-ylmethyl)-amide], the melting point fell in the range of 189 to 191 °C. Also, the IC50 in data set [2] (setting [9]) turned out to be 23 µM.

Regarding `Cc1c(=O)[nH]c(=O)n2ccsc12` [Example 53, 8-Methyl-thiazolo[3,2-c]pyrimidine-5,7-dione], the melting point is greater than 230 °C. Further, in data set [2] (setting [8]), the IC50 was greater than 100 µM.

Take `Cc1c(=O)n(Cc2ccc(S(C)(=O)=O)cc2)c(=O)n2cc(C(=O)NCc3ccncc3)sc12` [Example 81, 6-(4-Methanesulfonyl-benzyl)-8-methyl-5,7-dioxo-6,7-dihydro-5H-thiazolo[3,2-c]pyrimidine-2-carboxylic acid(pyridin-4-ylmethyl)-amide hydrochloride]: the IC50 in data set [1] was greater than 100 µM.

On to `COC(=O)c1ccc(Cn2c(=O)c(C)c3sc(C(=O)NCc4ccc(OC)cc4)cn3c2=O)cc1` [Example 103, 4-[2-(4-Methoxy-benzylcarbamoyl)-8-methyl-5,7-dioxo-7H-thiazolo[3,2-c]pyrimidin-6-ylmethyl]-benzoic acid methyl ester], for which the melting point was in the range of 163 to 165 °C. Also, in data set [2] (setting [8]), the IC50 worked out at 0.0106 µM. Also, the IC50 in data set [3] is 65 µM. The IC50 in data set [4] is greater than 100 µM. Also, the IC50 in data set [5] is greater than 100 µM. In data set [6], the IC50 was greater than 100 µM.

On to `O=C(NCc1ccccc1)c1cn2c(=O)n(Cc3ccc(Cl)c(Cl)c3)c(=O)cc2s1` [Example 12, 6-(3,4-Dichlorobenzyl)-5,7-dioxo-6,7-dihydro-5H-thiazolo[3,2-c]pyrimidine-2-carboxylic acid benzylamide], for which the melting point was in the range of 216 to 217 °C. Further, in data set [2] (setting [8]), the IC50 was found to be 0.293 µM. The IC50 in data set [3] was greater than 100 µM. Further, in data set [4], the IC50 was 20 µM. Further, in data set [5], the half-maximal inhibitory concentration (IC50) is greater than 30 µM. Besides, the IC50 in data set [6] is greater than 30 µM.

For `Cc1c(=O)n(Cc2ccccc2)c(=O)n2cc(C(=O)NCc3ccc4nsnc4c3)sc12` [Example 42, 6-Benzyl-8-methyl-5,7-dioxo-6,7-dihydro-5H-thiazolo[3,2-c]pyrimidine-2-carboxylic acid(2,1,3-benzothiadiazol-5-ylmethyl)-amide], the IC50 in data set [3] was greater than 30 µM; in data set [7], 10 µM; in data set [4] it was greater than 30 µM; in data set [5], greater than 30 µM; in data set [6], greater than 100 µM.

On to `Cc1c(=O)n(Cc2ccccc2)c(=O)n2cc(C(=O)OCc3ccccc3)sc12` [Example 2, 6-Benzyl-8-methyl-5,7-dioxo-6,7-dihydro-5H-thiazolo[3,2-c]pyrimidine-2-carboxylic acid benzyl ester], for which the IC50 in data set [1] was greater than 100 µM.

Turning to `COc1cc(CNC(=O)c2cn3c(=O)n(Cc4ccccc4)c(=O)c(C)c3s2)ccn1` [Example 37a, hydrochloride], the results for the 50% inhibitory concentration (IC50) in data set [2] (setting [9]), in data set [7] and in data set [4] were 0.0208 µM, 20.5 µM and 26 µM, respectively.

`O=C(NCc1ccc(Cl)c(Cl)c1)c1cn2c(=O)n(Cc3ccc(Cl)cc3)c(=O)cc2s1` [Example 14, 6-(4-Chlorobenzyl)-5,7-dioxo-6,7-dihydro-5H-thiazolo[3,2-c]pyrimidine-2-carboxylic acid 3,4-dichlorobenzylamide]: the melting point fell in the range of 218 to 219 °C. The IC50 in data set [3] is greater than 30 µM. In data set [4], the IC50 came out at 25 µM. Further, the concentration for half-maximal inhibition (IC50) in data set [5] is greater than 30 µM. The IC50 in data set [6] was greater than 100 µM.
